Where “and” joins values, the source holds several entries; their conditions need not be identical. Identical values can stand only once. Marks after values point to notes of the source that are not given here. Non-standard residues stand in square brackets, D forms with d. Residues, ends and D or L forms follow the SMILES beside them. *: point of attachment. Asu = N[C@@H](CCCCCC(=O)O)C(=O)O; NHOH = ON*
Experiments:
[1] = target: T1, HDAC1 (Homo sapiens, UniProt Q13547); assay: HDAC inhibition assay (fluorogenic, Ac-Leu-Gly-Lys(Ac)-AMC); assay type: biochemical; conditions: for HDAC1 dose-response data (relative enzyme activity), Fig. 6 + S. Fig. 10: duplicate columns
T1 construct: HDAC1 (full length, C-terminal His tag, C-terminal FLAG tag, BPS Bioscience, cat. #: 50051); FLAG (C); purchased BPS Bioscience 50051
T1 sequence (Q13547 whole entry): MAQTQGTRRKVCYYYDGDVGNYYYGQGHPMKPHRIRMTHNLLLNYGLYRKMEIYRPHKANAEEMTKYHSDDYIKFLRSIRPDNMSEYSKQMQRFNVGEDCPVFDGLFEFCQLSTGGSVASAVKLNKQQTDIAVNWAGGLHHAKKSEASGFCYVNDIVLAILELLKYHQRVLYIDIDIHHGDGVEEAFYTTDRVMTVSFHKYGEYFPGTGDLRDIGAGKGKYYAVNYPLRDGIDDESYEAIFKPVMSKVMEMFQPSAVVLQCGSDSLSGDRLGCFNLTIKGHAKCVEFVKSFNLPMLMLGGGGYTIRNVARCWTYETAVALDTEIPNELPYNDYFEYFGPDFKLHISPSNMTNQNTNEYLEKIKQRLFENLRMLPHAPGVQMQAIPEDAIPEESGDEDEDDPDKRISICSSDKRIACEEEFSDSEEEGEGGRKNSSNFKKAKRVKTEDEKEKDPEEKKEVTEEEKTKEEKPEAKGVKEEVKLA

[2] = target: T1, HDAC1; assay: Recombinant HDAC µSPOT microarray binding assay
[3] = target: T2, HDAC3/NCoR2 (Homo sapiens, UniProt O15379); assay: Recombinant HDAC µSPOT microarray binding assay;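 also: peptide spots on cellulose slides incubated with rising HDAC enzyme concentrations, imaged together, four-parameter logistic fit, EC50 is enzyme concentration giving half-maximal binding signal, two experiments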
T2 construct: HDAC3/NCoR2 (full length, C-terminal His tag, NCoR2 N-terminal GST tag); purchased BPS Bioscience 50003
T2 sequence (O15379 whole entry): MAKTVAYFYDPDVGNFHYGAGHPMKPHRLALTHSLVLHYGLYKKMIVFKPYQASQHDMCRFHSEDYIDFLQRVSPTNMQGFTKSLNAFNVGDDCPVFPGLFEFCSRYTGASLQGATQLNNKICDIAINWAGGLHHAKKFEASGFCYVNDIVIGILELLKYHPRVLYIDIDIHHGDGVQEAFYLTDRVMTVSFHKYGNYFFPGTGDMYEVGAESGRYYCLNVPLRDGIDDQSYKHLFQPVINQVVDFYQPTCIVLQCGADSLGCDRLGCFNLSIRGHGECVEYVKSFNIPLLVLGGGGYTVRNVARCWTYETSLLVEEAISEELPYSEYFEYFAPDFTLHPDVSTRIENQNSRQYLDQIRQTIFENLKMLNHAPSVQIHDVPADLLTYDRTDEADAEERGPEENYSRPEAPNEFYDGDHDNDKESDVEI
T2 sequence (Q9Y618 389-480 partner limits assumed): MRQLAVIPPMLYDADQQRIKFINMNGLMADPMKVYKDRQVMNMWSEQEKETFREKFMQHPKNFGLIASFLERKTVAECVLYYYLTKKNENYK

[4] = target: T3, HDAC6 (Homo sapiens, UniProt Q9UBN7); assay: HDAC inhibition assay (fluorogenic, Ac-Leu-Gly-Lys(Ac)-AMC); assay type: biochemical; conditions: HDAC6, replicates
T3 construct: HDAC6 (full length, BPS Bioscience, cat. #: 50056); purchased BPS Bioscience 50056
T3 sequence (Q9UBN7 1-1215): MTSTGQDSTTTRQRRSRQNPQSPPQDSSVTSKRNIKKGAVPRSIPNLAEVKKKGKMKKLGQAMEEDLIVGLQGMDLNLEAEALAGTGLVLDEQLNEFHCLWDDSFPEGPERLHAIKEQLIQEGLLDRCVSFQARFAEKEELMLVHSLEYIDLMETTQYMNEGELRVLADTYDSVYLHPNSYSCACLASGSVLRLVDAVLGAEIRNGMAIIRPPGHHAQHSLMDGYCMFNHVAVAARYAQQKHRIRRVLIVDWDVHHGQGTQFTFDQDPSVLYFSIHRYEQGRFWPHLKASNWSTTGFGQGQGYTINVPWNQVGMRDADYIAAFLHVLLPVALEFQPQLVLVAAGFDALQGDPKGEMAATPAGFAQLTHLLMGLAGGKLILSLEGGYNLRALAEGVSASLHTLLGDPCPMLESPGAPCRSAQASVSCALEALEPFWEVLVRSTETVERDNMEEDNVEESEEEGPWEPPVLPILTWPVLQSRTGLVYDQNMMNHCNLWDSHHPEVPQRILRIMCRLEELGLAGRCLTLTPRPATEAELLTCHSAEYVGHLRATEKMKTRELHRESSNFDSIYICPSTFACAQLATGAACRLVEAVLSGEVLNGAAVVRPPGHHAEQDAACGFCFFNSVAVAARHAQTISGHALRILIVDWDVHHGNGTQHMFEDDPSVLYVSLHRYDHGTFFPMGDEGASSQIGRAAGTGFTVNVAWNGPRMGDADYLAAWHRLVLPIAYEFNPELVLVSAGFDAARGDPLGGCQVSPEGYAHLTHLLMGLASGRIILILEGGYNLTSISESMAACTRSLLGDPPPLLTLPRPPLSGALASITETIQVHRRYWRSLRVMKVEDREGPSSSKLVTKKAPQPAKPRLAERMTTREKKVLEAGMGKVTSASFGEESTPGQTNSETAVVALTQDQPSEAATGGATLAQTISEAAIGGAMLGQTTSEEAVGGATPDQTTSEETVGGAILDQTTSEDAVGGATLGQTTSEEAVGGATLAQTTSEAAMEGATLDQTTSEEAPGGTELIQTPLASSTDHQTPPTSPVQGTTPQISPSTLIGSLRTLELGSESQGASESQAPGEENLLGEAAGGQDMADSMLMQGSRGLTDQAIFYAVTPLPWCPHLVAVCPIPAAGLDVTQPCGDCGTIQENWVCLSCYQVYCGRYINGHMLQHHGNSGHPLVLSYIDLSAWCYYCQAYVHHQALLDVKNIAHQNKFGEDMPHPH

[5] = target: T4, HDAC2 (Homo sapiens, UniProt Q92769); assay: as above; assay type: biochemical; conditions: for HDAC2 dose-response data (relative enzyme activity), Fig. 6 + S. Fig. 10: duplicate columns
T4 construct: HDAC2 (full length, C-terminal His tag, BPS Bioscience, cat. #: 50002); purchased BPS Bioscience 50002
T4 sequence (Q92769 whole entry): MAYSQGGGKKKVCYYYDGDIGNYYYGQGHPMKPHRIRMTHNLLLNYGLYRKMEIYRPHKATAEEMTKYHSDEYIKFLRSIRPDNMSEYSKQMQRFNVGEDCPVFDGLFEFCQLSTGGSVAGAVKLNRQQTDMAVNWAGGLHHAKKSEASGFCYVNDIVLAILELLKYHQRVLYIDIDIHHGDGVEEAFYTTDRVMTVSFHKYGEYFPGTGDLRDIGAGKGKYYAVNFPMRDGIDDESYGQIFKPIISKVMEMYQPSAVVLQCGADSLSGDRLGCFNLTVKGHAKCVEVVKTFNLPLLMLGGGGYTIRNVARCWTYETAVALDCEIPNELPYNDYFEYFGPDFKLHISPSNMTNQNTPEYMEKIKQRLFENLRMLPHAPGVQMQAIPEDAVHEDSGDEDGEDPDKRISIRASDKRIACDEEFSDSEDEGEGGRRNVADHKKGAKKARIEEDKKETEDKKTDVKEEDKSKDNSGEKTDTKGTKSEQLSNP

[6] = target: T4, HDAC2; assay: Recombinant HDAC µSPOT microarray binding assay
[7] = target: T2, HDAC3/NCoR2; assay: HDAC inhibition assay (fluorogenic, Ac-Leu-Gly-Lys(Ac)-AMC); assay type: biochemical; conditions: for HDAC3 dose-response data (relative enzyme activity), Fig. 6 + S. Fig. 10: duplicate columns
[8] = target: T5, HDAC8 (Homo sapiens, UniProt Q9BY41); assay: HDAC inhibition assay (fluorogenic, Ac-Leu-Gly-Lys(Tfa)-AMC); assay type: biochemical; conditions: for HDAC8 dose-response data (relative enzyme activity, replicate values), Fig. 6 + S. Fig. 10: two replicate columns per inhibitor; for HDAC8 dose-response data (relative enzyme activity), Fig. 6 + S. Fig. 10: duplicate columns
T5 construct: HDAC8 (full length, C-terminal His tag, BPS Bioscience, cat. #: 50008); purchased BPS Bioscience 50008
T5 sequence (Q9BY41 1-377): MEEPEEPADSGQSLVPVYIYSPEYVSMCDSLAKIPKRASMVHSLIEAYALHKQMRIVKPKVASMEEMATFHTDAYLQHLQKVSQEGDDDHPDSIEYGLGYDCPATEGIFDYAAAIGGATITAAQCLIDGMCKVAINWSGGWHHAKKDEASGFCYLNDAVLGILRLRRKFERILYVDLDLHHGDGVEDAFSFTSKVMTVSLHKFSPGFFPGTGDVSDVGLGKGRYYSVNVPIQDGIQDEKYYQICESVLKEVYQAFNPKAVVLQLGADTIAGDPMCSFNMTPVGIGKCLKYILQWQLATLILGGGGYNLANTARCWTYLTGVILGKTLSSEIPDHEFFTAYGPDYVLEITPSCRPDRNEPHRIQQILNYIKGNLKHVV

[9] = log[inhibitor(M)] -10,5850266520292*, whole line marked with asterisks

CC(=O)N[C@@H](CC(C)C)C(=O)NCC(=O)N[C@@H](CCCCN)C(=O)NCC(=O)NCC(=O)N[C@@H](C)C(=O)N[C@@H](CCCCCC(=O)NO)C(=O)N[C@@H](CCCNC(=N)N)C(=O)N[C@@H](Cc1c[nH]cn1)C(=O)N[C@@H](CCCNC(=N)N)C(=O)N[C@@H](CCCCN)C(=O)N[C@H](C(=O)N[C@@H](CC(C)C)C(=O)N[C@@H](CCCNC(=N)N)C(=O)N[C@@H](CC(=O)O)C(=O)N[C@@H](CC(N)=O)C(=O)N[C@@H](Cc1c[nH]c2ccccc12)C(N)=O)C(C)C [16a] (Ac-LGKGGA[Asu](NHOH)RHRKVLRDNW-NH2)
Ki [1]: 15.7 ± 0.2 nM | HDAC1 dose-response data (relative enzyme activity), Fig. 6 + S. Fig. 10 ([1]; log[inhibitor(M)] -6.39794): 20.1917 and 18.7736 | HDAC1 dose-response data (relative enzyme activity), Fig. 6 + S. Fig. 10 ([1]; log[inhibitor(M)] -7.09691): 58.4856 and 48.5202 | HDAC1 dose-response data (relative enzyme activity), Fig. 6 + S. Fig. 10 ([1]; log[inhibitor(M)] -7.79588): 83.6845 and 79.5184 | HDAC1 dose-response data (relative enzyme activity), Fig. 6 + S. Fig. 10 ([1]; log[inhibitor(M)] -8.49485): 104.354 and 102.416 | HDAC1 dose-response data (relative enzyme activity), Fig. 6 + S. Fig. 10 ([1]; log[inhibitor(M)] -9.19382): 117.259 and 104.242 | HDAC1 dose-response data (relative enzyme activity), Fig. 6 + S. Fig. 10 ([1]; log[inhibitor(M)] -9.89279): 112.284 and 97.8893 | HDAC1 dose-response data (relative enzyme activity), Fig. 6 + S. Fig. 10 [1, 9]: 104,006* and 95,9789* | EC50 [2]: 12.6 nM | EC50 [3]: 3.24 nM | residual enzymatic activity relative to control wells ([4]; log[inhibitor(M)] -4.30103): 4.09 and 0.65 | residual enzymatic activity relative to control wells ([4]; log[inhibitor(M)] -5): 6.22 and 1.17 | residual enzymatic activity relative to control wells ([4]; log[inhibitor(M)] -5.69897): 11.26 and 3.12 | residual enzymatic activity relative to control wells ([4]; log[inhibitor(M)] -6.39794): 21.64 and 10.97 | residual enzymatic activity relative to control wells ([4]; log[inhibitor(M)] -7.09691): 46.18 and 32.55 | residual enzymatic activity relative to control wells ([4]; log[inhibitor(M)] -7.79588): 74.92 and 62.21 | residual enzymatic activity relative to control wells ([4]; log[inhibitor(M)] -8.49485): 91.41 and 82.42 | residual enzymatic activity relative to control wells ([4]; log[inhibitor(M)] -9.19382): 100.82 and 93.56 | residual enzymatic activity relative to control wells ([4]; log[inhibitor(M)] -9.89279): 98.48 and 94.75 | residual enzymatic activity relative to control wells ([4]; log[inhibitor(M)] -10.585): 101,7* and 98,09* | HDAC2 dose-response data (relative enzyme activity), Fig. 6 + S. Fig. 10 ([5]; log[inhibitor(M)] -7.79588): 97.4067 and 92.3774 | HDAC2 dose-response data (relative enzyme activity), Fig. 6 + S. Fig. 10 [5, 9]: 106,147* and 102,092* | Ki ([5]; resynthesized peptide in solution, Cheng-Prusoff, n = 2): 18.3 ± 0.3 nM | EC50 [6]: 1.45 nM | Ki [7]: 2.22 ± 0.02 nM | HDAC3 dose-response data (relative enzyme activity), Fig. 6 + S. Fig. 10 ([7]; log[inhibitor(M)] -4.30103): 0.4175 and 0.3694 | HDAC3 dose-response data (relative enzyme activity), Fig. 6 + S. Fig. 10 ([7]; log[inhibitor(M)] -5): 1.3048 and 1.953 | HDAC3 dose-response data (relative enzyme activity), Fig. 6 + S. Fig. 10 ([7]; log[inhibitor(M)] -5.69897): 3.445 and 2.8496 | HDAC3 dose-response data (relative enzyme activity), Fig. 6 + S. Fig. 10 ([7]; log[inhibitor(M)] -6.39794): 11.0647 and 10.1847 | HDAC3 dose-response data (relative enzyme activity), Fig. 6 + S. Fig. 10 ([7]; log[inhibitor(M)] -7.09691): 22.9645 and 23.8522 | HDAC3 dose-response data (relative enzyme activity), Fig. 6 + S. Fig. 10 ([7]; log[inhibitor(M)] -7.79588): 45.6159 and 50.9763 | HDAC3 dose-response data (relative enzyme activity), Fig. 6 + S. Fig. 10 ([7]; log[inhibitor(M)] -8.49485): 73.3299 and 73.9314 | HDAC3 dose-response data (relative enzyme activity), Fig. 6 + S. Fig. 10 ([7]; log[inhibitor(M)] -9.19382): 93.2672 and 99.1029 | HDAC3 dose-response data (relative enzyme activity), Fig. 6 + S. Fig. 10 ([7]; log[inhibitor(M)] -9.89279): 96.9207 and 113.14 | HDAC3 dose-response data (relative enzyme activity), Fig. 6 + S. Fig. 10 [7, 9]: 99,4259* and 104,433* | Ki [8]: 3960 ± 30 nM | HDAC8 dose-response data (relative enzyme activity, replicate values), Fig. 6 + S. Fig. 10 ([8]; Inhibitor conc [M] -8.49485 (log)): 105.989 and 103.599 | HDAC8 dose-response data (relative enzyme activity, replicate values), Fig. 6 + S. Fig. 10 ([8]; Inhibitor conc [M] -9.19382 (log)): 103.027 and 101.95 | HDAC8 dose-response data (relative enzyme activity, replicate values), Fig. 6 + S. Fig. 10 ([8]; Inhibitor conc [M] given as -7.09691 (log)): 102.108 and 99.2954 | HDAC8 dose-response data (relative enzyme activity, replicate values), Fig. 6 + S. Fig. 10 ([8]; Inhibitor conc [M] given as -7.79588 (log)): 104.22 and 100.942 | HDAC8 dose-response data (relative enzyme activity, replicate values), Fig. 6 + S. Fig. 10 ([8]; Inhibitor conc [M] given as -9.89279 (log)): 101.805 and 102.182 | HDAC8 dose-response data (relative enzyme activity, replicate values), Fig. 6 + S. Fig. 10 ([8]; Inhibitor conc [M] given as -10.585 (log)): 101,084* and 101,486* | HDAC8 dose-response data (relative enzyme activity), Fig. 6 + S. Fig. 10 ([8]; Inhibitor conc [M] -4.30103): 9.568 and 11.2045 | HDAC8 dose-response data (relative enzyme activity), Fig. 6 + S. Fig. 10 ([8]; Inhibitor conc [M] -5): 36.7683 and 38.5294 | HDAC8 dose-response data (relative enzyme activity), Fig. 6 + S. Fig. 10 ([8]; Inhibitor conc [M] -5.69897): 76.0846 and 76.9796 | HDAC8 dose-response data (relative enzyme activity), Fig. 6 + S. Fig. 10 ([8]; Inhibitor conc [M] -6.39794): 95.2833 and 94.1446

From PMC7782793, “Hydroxamic acid-modified peptide microarrays for profiling isozyme-selective interactions and inhibition of histone deacetylases” (Nature Communications, 2021)
